What was measured:
[1] = cited from earlier work
[2] = system: cofactor F420 reductase from Methanobacterium thermoautotrophicum; conditions: as substrate of the F420 reductase; cited from earlier work
S. cerevisiae = format: cell-based, Saccharomyces cerevisiae
Excerpt: The third primary library (PL3) mediates TAN-1612 high-titer toxicity by merging three complimentary routes. This example (i) optimizes performance of an efflux pump in order to reduce intracellular TAN-1612 concentrations, (ii) screens a large number of wild yeast isolates for higher TAN-1612 tolerance and use them for background crossing and (iii) evolves the v2.0 producer for TAN-1612 resistance through random mutagenesis and selection. In preliminary results, TAN-1612 and anhydrotetracycline (Atc) growth inhibition in concentrations of 10 mg/L was confirmed. In order to increase TAN-1612 tolerance the v2.0 producer co-expresses the supposed efflux pump […]_48051 (GenBank: EHA19824.1) that was obtained by genome-mining from the natural producer strain A. niger. […] This can improve pump performance via gene titration and genome-mines other efflux pumps. PL3 further includes of a large number (>50) of wild S. cerevisiae isolates that are screened for higher tolerance to TAN-1612 using a growth-based microtiter plate assay.

[3] = system: Saccharomyces cerevisiae BJ5464; assay: Toxicity assay of TAN-1612 in Saccharomyces cerevisiae; format: cell-based
Experimental: The toxicity assay of TAN-1612 in Saccharomyces cerevisiae. BJ5464 strains were cultured in complete synthetic medium in presence of different tetracycline or its analogs. […] (FIG. 42B) BJ5464 strains were cultured in YPD: non-defined medium in presence of different tetracycline or its analogs. (FIG. 42A). […] (FIG. 43).

| Structure (SMILES) | Relative rate of acid hydrolysis (to OMe) [1] | growth inhibition in concentrations of (S. cerevisiae) | also measured |
| --- | --- | --- | --- |
| OCC1OC(OC(c2ccccc2)c2ccccc2)C(O)C(O)C1O (stereo not shown) | 25.6 | – | – |
| OCC1OC(OC23CC4CC(CC(C4)C2)C3)C(O)C(O)C1O (stereo not shown) | 48.5 | – | – |
| O=c1nc2n(C[C@H](O)[C@H](O)[C@H](O)CO)c3cc(O)ccc3cc-2c(=O)[nH]1 [Fo, 7,8-didemethyl-8-hydroxy-5-deazariboflavin] | – | – | Km [2]: 34 µM |
| COc1cc(O)c2c(O)c3c(cc2c1)CC1(O)CC(=O)C(C(C)=O)=C(O)C1(O)C3=O (stereo not shown) [TAN-1612] | – | 10 mg/L | toxicity at the range of ([3]; BJ5464 cultured in YPD non-defined medium): 50 to 100 mg/L; toxicity at the range of ([3]; BJ5464 cultured in complete synthetic medium): 1 to 10 mg/L |
| Cc1c2c(c(O)c3c(O)cccc13)C(=O)[C@]1(O)C(=O)C(C(N)=O)=C(O)[C@@H](N(C)C)[C@@H]1C2 [anhydrotetracycline, reference compound] | – | 10 mg/L | – |
